Patent US5580552A, “7-glycosyloxybenzopyran derivative and antiallergic agent containing the derivative as active ingredient” (priority 1994, dated 1996)

Experiments:
[1] = test system: homologous passive cutaneous anaphylaxis (PCA) reaction; test: Effect on homologous passive cutaneous anaphylaxis (PCA) reaction in rats; assay type: in vivo, rats (male wistar); conditions: for inhibition in vivo at 50 mg/kg / Inhibition (%) of PCA reaction: 50 mg/kg oral, 1 hour before challenge (TABLE 2)
Procedure: Effect on homologous passive cutaneous anaphylaxis (PCA) reaction in rats.
This experimental animal model is caused by immediate type allergic reaction namely, antigen-antibody reaction. In the following, the method of this pharmacological test will be explained.
Method: Male wistar rats (9 weeks old) were intradermally administered 0.05 ml of anti-serum against dinitrophenylated ascaris (DNP-As) into two sites on the shaved dorsal skin. 48 hours later, 7-glycosyloxybenzopyran derivatives (test compounds) suspended in 0.5% sodium carboxymethylcellulose (CMCNa) were given orally at a dose of 50 mg/kg to the animals. One hour after administration of Test compounds, the animals were induced anaphylaxis by injection of saline (1 ml) dissolving 5 mg of Evans Blue and 1 mg of Trinitrophenylated ascaris (TNP-As) into the tail vein of the animals. 30 minutes after induction of anaphylaxis, animals were anesthetized by ether and killed by bleeding, and were flayed dorsal skin. The determination of extravasated dye was performed according to the method of Katayama et al. (Microbiol. Immunol., Vol.22, P 89-101, 1978). As vehicle control group, only 0.5% CMCNa solution was administered orally, and as positive control group, Tranilast suspended in 0.5% CMCNa was administered orally at a dose of 100 mg/kg to the animals with the same method as the test compounds groups. Each experimental group consisted of 5 rats. [formula]

[2] = test system: contact dermatitis induced by picryl chloride; test: Effect on contact dermatitis induced by picryl chloride in mice; assay type: in vivo; conditions: for inhibition in vivo at 50 mg/kg / Inhibition (%) against the increase of ear thickness: 50 mg/kg oral, 1 hour before and 16 hours after challenge, 24 hours after challenge
Procedure: Effect on contact dermatitis induced by picryl chloride in mice
The delayed type hypersensitization is inhibited by steroid drugs,but can not be effected by known anti-allergic agents. In the following, the method of the pharmacological test will be explained.
Method: Mice, shaved their abdominal skin on previous day, were immunized by applying 0.1 ml of acetone containing 7 mg of picryl chloride to the skin of the abdomen. 7 days after immunization, the thickness of the ear was measured with a dial thickness gauge, then mice were challenged by painting 5 μl of 1% picryl chloride olive oil solution to each side skin of left ear. 24 hours after challenge, the thickness of the left ear was measured again and the increase (%) of thickness was calculated according to equation 2. The compounds of the present invention (test compounds) suspended in 0.5% CMCNa were forcibly administered orally at a dose of 50 mg/kg at 1 hour before and 16 hours after challenge. As vehicle control group, only 0.5% CMCNa solution were administered orally, and as positive control group, Prednisolone, steroid hormone, and Tranilast were administered orally at the doses of 10 mg/kg and 100 mg/kg, respectively.
Increase (%)=(A-B)/B×100 (Equation 2)
A: thickness of the ear at 24 hours after challenge
B: thickness of the ear before challenge
Inhibition (%)=(C-D)/C×100 (equation 3)
C: The increase (%) in vehicle control group
D: The increase (%) in test compounds group or positive control group

[3] = test system: experimental asthma model (airway resistance); test: Effect on experimental asthma model in guinea pigs (airway resistance); assay type: in vivo, guinea pigs (male hartley); conditions: for inhibition in vivo at 50 mg/kg: po; for inhibition in vivo at 50 mg/kg / Inhibition (%) of the airway resistance: 50 mg/kg oral (TABLE 6)
Procedure: Effect on experimental asthma model in guinea pigs
The asthma is typical allergic disease and we carried out this pharmacological test by well known experimental asthma model in guinea pigs in order to comfirm that the compounds of the present invention suppress the asthma. In the following, the method of the pharmacological test will be explained.
Method: Male hartley guinea pigs were immunized by intraperitoneal injection of saline (1ml) containing 5 mg of ovalbumine (OVA) three times at interval of one week. 2 weeks after final immunization, the animals were challenged by inhalation of 1% OVA-saline solution for 1 minute and then the airway resistance of the animals were measured for 30 minutes with PULMOS-1 (Medical Interface Project Station Inc.) after the inhalation. The compounds of the present invention (test compounds) suspended in 0.5% CMCNa were given orally at a dose of 50 mg/kg. As positive control group, Disodium Cromoglicate (DSCG), well known anti-allergic agent, in saline were injected at a dose of 20 mg/kg into the vein of the animals. As vehicle control group, only 0.5% CMCNa solution were given orally. The inhibition (%) of the airway resistance in vehicle control group was calculated according to equation 5 and the result was shown in TABLE 6. Each experimental group consisted of 5 guinea pigs. [formula]
A: Maximum airway resistance in vehicle control group
B: Maximum airway resistance in test compounds group or positive control group

[4] = Mus musculus, po, 24 h, read-out: Inhibition (%) against the increase of ear thickness

Row | Compound | inhibition in vivo at 50 mg/kg ([1]; Rattus norvegicus, po, 0.5 h) | inhibition in vivo at 50 mg/kg [2, 4] | inhibition in vivo at 50 mg/kg ([3]; Cavia porcellus, 0.5 h) | further results
1 | CC(C)=CCC/C(C)=C/COc1c(O)c2ccc(O[C@@H]3O[C@H](CO)[C@H](O)[C@H](O)[C@H]3O)cc2oc1=O [compound 95] | 54.2% | 55.8% | 63.2% | –
2 | CCC=CCCOc1c(O)c2ccc(O[C@@H]3O[C@H](CO)[C@H](O)[C@H](O)[C@H]3O)cc2oc1=O [compound 94] | 53.7% | 51.2% | 73.2% | –
3 | CCCCOc1c(O)c2ccc(O[C@H]3O[C@H](CO)[C@@H](O)[C@H](O)[C@@H]3O)cc2oc1=O [compound 62] | 53.2% | 49.3% | 50.1% | –
4 | CC(C)=CCC/C(C)=C/COc1c(O)c2ccc(O[C@@H]3O[C@H](CO)[C@@H](O)[C@H](O)[C@H]3O)cc2oc1=O [compound 46] | 54.3% | 57.6% | 63.4% | –
5 | CC(C)Oc1c(O)c(=O)oc2cc(O[C@H]3O[C@H](CO)[C@@H](O)[C@H](O)[C@@H]3O)ccc12 [compound 135] | 40.3% | 44.6% | 47.1% | –
6 | CC1CCC(Oc2c(O)c(=O)oc3cc(O[C@@H]4O[C@H](CO)[C@@H](O)[C@H](O)[C@H]4O)ccc23)CC1 (some centres unmarked) [compound 114] | 45.3% | 47.3% | 59.7% | –
7 | CCCCCCCCCCOc1c(O)c2ccc(O[C@@H]3O[C@H](CO)[C@@H](O)[C@H](O)[C@H]3O)cc2oc1=O [compound 40] | 57.3% | 62.1% | 73.1% | –
8 | CCCCCCOc1c(O)c(=O)oc2cc(O[C@@H]3O[C@H](CO)[C@@H](O)[C@H](O)[C@H]3O)ccc12 [compound 19, 3-hydroxy-4-hexyloxy-7-(β-D-glucopyranosyloxy)-2H-1-benzopyran-2-one] | 44.9% | 47.1% | 65.2% | –
9 | CCCCOc1c(O)c2ccc(O[C@@H]3O[C@H](CO)[C@@H](O)[C@H](O)[C@H]3O)cc2oc1=O [compound 37] | 55.1% | 53.9% | 68.2% | –
10 | CCCCCCCCCCOc1c(O)c(=O)oc2cc(O[C@@H]3O[C@H](CO)[C@@H](O)[C@H](O)[C@H]3O)ccc12 [compound 154] | – | – | – | Inhibition (%) of PCA reaction [1]: 43.2%; Inhibition (%) against the increase of ear thickness [2]: 41.6%; Inhibition (%) of the airway resistance [3]: 59.2%
11 | CCCCCCCCCCCCOc1c(O)c2ccc(O[C@@H]3O[C@H](CO)[C@H](O)[C@H](O)[C@H]3O)cc2oc1=O [compound 90] | 54.3% | 60.1% | 72.1% | –
12 | COc1c(O)c(=O)oc2cc(O[C@@H]3O[C@H](CO)[C@@H](O)[C@H](O)[C@H]3O)ccc12 [compound 153] | – | – | – | Inhibition (%) of PCA reaction [1]: 42.4%; Inhibition (%) against the increase of ear thickness [2]: 44.7%; Inhibition (%) of the airway resistance [3]: 54.3%
13 | O=c1oc2cc(O[C@H]3O[C@H](CO)[C@@H](O)[C@H](O)[C@@H]3O)ccc2c(O)c1O [compound 130] | – | – | – | Inhibition (%) of PCA reaction [1]: 40.1%; Inhibition (%) against the increase of ear thickness [2]: 41.2%; Inhibition (%) of the airway resistance [3]: 40.2%
14 | CC(=O)Oc1c(O)c2ccc(O[C@@H]3O[C@H](CO)[C@@H](O)[C@H](O)[C@H]3O)cc2oc1=O [compound 11, 3-acetoxy-4-hydroxy-7-(β-D-glucopyranosyloxy)-2H-1-benzopyran-2-one] | 43.2% | 44.3% | 45.7% | –
15 | O=c1oc2cc(O[C@@H]3O[C@H](CO)[C@@H](O)[C@H](O)[C@H]3O)ccc2c(O)c1OCc1ccccc1 [compound 47] | 52.1% | 51.9% | 59.1% | –
16 | CCCCCCCCCCOc1c(O)c2ccc(O[C@H]3O[C@H](CO)[C@@H](O)[C@H](O)[C@@H]3O)cc2oc1=O [compound 65] | 52.1% | 50.3% | 49.3% | –
17 | CCCCOc1c(O)c2ccc(O[C@@H]3O[C@H](CO)[C@H](O)[C@H](O)[C@H]3O)cc2oc1=O [compound 86] | 56.4% | 59.4% | 73.2% | –
18 | CC(C)=CCC/C(C)=C/COc1c(O)c2ccc(O[C@H]3O[C@H](CO)[C@@H](O)[C@H](O)[C@@H]3O)cc2oc1=O [compound 71] | 49.8% | 47.4% | 63.2% | –
19 | CC(C)Oc1c(O)c2ccc(O[C@@H]3O[C@H](CO)[C@@H](O)[C@H](O)[C@H]3O)cc2oc1=O [compound 42] | 56.4% | 58.3% | 68.5% | –
20 | O=c1oc2cc(O[C@H]3O[C@H](CO)[C@@H](O)[C@H](O)[C@@H]3O)ccc2c(OCc2ccccc2)c1O [compound 140] | 40.4% | 40.1% | 45.1% | –
21 | CC(C)Oc1c(O)c(=O)oc2cc(O[C@@H]3O[C@H](CO)[C@@H](O)[C@H](O)[C@H]3O)ccc12 [compound 156] | – | – | – | Inhibition (%) of PCA reaction [1]: 42.1%; Inhibition (%) against the increase of ear thickness [2]: 43.2%; Inhibition (%) of the airway resistance [3]: 48.2%
22 | C[C@]12C=CC(=O)C=C1CC[C@@H]1[C@@H]2[C@@H](O)C[C@@]2(C)[C@H]1CC[C@]2(O)C(=O)CO [Prednisolone, reference compound] | – | – | – | inhibition in vivo at 10 mg/kg [2, 4]: 63.7%
23 | CCCCCCOc1c(O)c(=O)oc2cc(O[C@@H]3O[C@H](CO)[C@H](O)[C@H](O)[C@H]3O)ccc12 [compound 21, 3-hydroxy-4-hexyloxy-7-(β-D-galactopyranosyloxy)-2H-1-benzopyran-2-one] | 45.2% | 48.9% | 63.1% | –
24 | COc1c(O)c2ccc(O[C@@H]3O[C@H](CO)[C@@H](O)[C@H](O)[C@H]3O)cc2oc1=O [compound 3, 3-methoxy-4-hydroxy-7-(β-D-glucopyranosyloxy)-2H-1-benzopyran-2-one] | 53.1% | 51.3% | 63.1% | –
25 | COc1ccc(/C=C/C(=O)Nc2ccccc2C(=O)O)cc1OC [Tranilast, reference compound] | – | – | – | inhibition in vivo at 100 mg/kg ([1]; Rattus norvegicus, po, 0.5 h, positive control, 100 mg/kg oral (TABLE 2)): 54.6%; inhibition in vivo at 100 mg/kg ([2]; Mus musculus, po, 24 h, positive control Tranilast, 100 mg/kg oral, read-out: Inhibition (%) against the increase of ear thickness): 4.3%; inhibition of delayed type hypersensitization ([2]; Tranilast, 100 mg/kg oral): did not inhibit delayed type hypersensitization
26 | O=C(O)c1cc(=O)c2c(OCC(O)COc3cccc4oc(C(=O)O)cc(=O)c34)cccc2o1 [DSCG, Disodium Cromoglicate, reference compound] | – | – | – | inhibition in vivo at 20 mg/kg ([3]; Cavia porcellus, iv, 0.5 h, positive control DSCG, 20 mg/kg into the vein (TABLE 6)): 51.2%
